The values that follow come from patent US10208089B2, “Modulation of complement activity” (priority 2014, dated 2019).

Data set [1] is described as follows: Pharmacokinetic studies in rat (IV and SC). Particulars: male rats, SC 30 mg/kg, combined plasma concentrations of R3152 and R3201. As to the method: Left: Male Sprague-Dawley rats (n=3) were injected intravenously at a single 2 mg/kg dose. Blood samples were collected at indicated time points, processed into plasma, and analyzed for the indicated compound by LC-MS. […] […] Blood samples were collected at indicated time points, processed into plasma, and analyzed for the indicated compound by LC-MS.
Blood samples were collected at indicated time points, processed into plasma, and analyzed for the indicated compound by LC-MS. […] Blood samples were collected at indicated time points, processed into plasma, and analyzed for the indicated compound by LC-MS.

The target of another data set is T1, rat C5 (Rattus norvegicus, UniProt P08650).
T1 construct: from tissue; host or cells: plasma of dosed male rats
The experiment in a line: Ex vivo hemolysis assays in the rat study.

The conditions of data set [2]: cynomolgus monkey, single 3 mg/kg IV.
In data set [3] the test system is primate C5 protein. The experiment in a line: Ex vivo hemolysis assay on plasma samples from the cynomolgus PK study. In kind it is in vivo, cynomolgus monkey.
From the text: Also shown are changes in hemolytic activity (squares) at the same time points.
Another data set can be described thus: in vivo. Particulars: male, cynomolgus monkey, iv, 3 mg/kg.
Data set [4] relates to primate C5 protein. The experiment in a line: Hemolysis assay with exogenous compound added to normal cynomolgus plasma. The data set is classed as cell-based, cynomolgus monkey.

Usually AUC(0-inf) stands for total exposure, with the tail of the curve extrapolated. Higher therefore signals high exposure. In general, Vd refers to a proportionality between amount in the body and measured concentration, not a real space. A high value points to wide distribution into tissue. Broadly, the clearance is the volume of plasma or blood freed of the substance per unit of time. A higher clearance goes with a high capacity for elimination. For orientation: half-life means how long it takes for the measured level to halve. In general, IC50 refers to the concentration needed to halve the response being measured. A high value points to weaker potency in that assay.

T1 sequence (P08650 19-1681): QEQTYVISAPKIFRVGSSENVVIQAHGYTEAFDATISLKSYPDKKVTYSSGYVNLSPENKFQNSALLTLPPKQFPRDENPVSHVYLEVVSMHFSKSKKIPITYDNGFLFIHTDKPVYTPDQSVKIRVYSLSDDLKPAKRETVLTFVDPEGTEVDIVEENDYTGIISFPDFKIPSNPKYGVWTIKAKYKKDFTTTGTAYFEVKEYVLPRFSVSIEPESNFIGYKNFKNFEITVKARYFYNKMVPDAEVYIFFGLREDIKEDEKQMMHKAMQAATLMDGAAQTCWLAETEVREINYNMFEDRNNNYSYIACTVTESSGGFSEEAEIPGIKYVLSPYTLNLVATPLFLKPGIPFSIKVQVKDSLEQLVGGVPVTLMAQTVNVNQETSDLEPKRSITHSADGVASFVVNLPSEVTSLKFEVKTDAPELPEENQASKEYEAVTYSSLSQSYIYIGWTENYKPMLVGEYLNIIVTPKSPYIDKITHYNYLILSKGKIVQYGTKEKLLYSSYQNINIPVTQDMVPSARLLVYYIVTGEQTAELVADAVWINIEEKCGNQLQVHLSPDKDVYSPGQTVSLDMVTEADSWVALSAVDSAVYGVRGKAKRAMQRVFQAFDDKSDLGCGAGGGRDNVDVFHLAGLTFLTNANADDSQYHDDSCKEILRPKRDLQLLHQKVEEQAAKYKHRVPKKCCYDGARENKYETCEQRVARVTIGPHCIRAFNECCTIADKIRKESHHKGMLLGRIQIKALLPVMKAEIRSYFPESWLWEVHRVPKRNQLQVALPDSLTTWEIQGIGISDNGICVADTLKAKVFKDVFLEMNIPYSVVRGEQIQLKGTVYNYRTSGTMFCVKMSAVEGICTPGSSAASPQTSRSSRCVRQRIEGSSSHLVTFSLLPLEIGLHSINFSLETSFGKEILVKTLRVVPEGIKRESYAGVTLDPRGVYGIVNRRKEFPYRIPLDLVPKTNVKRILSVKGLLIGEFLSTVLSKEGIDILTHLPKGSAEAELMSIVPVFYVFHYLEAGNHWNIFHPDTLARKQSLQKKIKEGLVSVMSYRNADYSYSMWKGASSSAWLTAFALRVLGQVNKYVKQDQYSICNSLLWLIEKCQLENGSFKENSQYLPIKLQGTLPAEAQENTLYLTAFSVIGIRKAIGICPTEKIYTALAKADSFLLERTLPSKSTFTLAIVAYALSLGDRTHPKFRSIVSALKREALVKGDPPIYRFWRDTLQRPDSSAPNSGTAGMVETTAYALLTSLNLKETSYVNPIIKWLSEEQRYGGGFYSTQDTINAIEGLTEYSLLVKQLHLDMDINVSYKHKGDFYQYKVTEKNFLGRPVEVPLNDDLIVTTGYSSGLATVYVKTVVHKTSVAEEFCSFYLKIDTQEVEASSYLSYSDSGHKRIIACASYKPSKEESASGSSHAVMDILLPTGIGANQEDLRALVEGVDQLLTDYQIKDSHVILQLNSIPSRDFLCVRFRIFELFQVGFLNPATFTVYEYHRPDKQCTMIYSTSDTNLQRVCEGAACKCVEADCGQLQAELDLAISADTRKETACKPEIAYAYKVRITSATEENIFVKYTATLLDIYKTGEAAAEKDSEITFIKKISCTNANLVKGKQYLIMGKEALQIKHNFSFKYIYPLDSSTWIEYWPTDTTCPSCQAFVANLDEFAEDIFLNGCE

With `CCC[C@H](NC(=O)[C@@H](NC(=O)[C@@H]1CCCN1C(=O)[C@H](Cc1ccc(O)cc1)NC(=O)[C@H](CCC(=O)O)NC(=O)[C@H](Cc1c[nH]c2ncccc12)NC(=O)[C@H](Cc1ccc(O)cc1)NC(=O)[C@@H](NC(=O)[C@H](CC(=O)O)NC(=O)[C@@H]1CSCc2cccc(c2)CSC[C@H](NC(C)=O)C(=O)N[C@@H](C(C)C)C(=O)N[C@@H](CCC(=O)O)C(=O)N[C@@H](CCCNC(=N)N)C(=O)N[C@@H](Cc2ccccc2)C(=O)N1)C(C)(C)C)C1CCCCC1)C(N)=O` [Compound R3152, [mXylyl(1,6)]Ac-C-V-E-R-F-C-D-Tbg-Y-azaTrp-E-Y-P-Chg-Nvl-NH2], the “bioavailability of dose, based on AUC” value in data set [1] is given as “approximately 65%”. In addition, on rat C5, the “inhibitory activity in ex vivo hemolysis assays (in words)” value is recorded as “very little inhibitory activity”. Moreover, the “binding to rat C5 (in words)” value at rat C5 (in vivo) is “do not bind”. Moreover, in data set [2], the initial distribution phase is less than 1 h and the “time for which plasma drug levels were detectable” value is on record as “up to 48 hours”. Besides, the “binding to primate C5 protein (in words)” value with primate C5 protein [3] (cynomolgus monkey, in vivo) is given as “binds with high affinity”. The “time after dosing at which hemolytic activity returned to normal levels” value in the data set on primate C5 protein [3] (cynomolgus monkey, single 3 mg/kg IV) was 48 h. Also, the “plasma concentration with clear inhibition of complement-mediated hemolysis” value in the data set on primate C5 protein [3] (cynomolgus plasma diluted 1:100, activated sheep red blood cells) is recorded as greater than 200 ng/mL. In “in vivo”, this compound had an AUC(0-inf) of 23300 ± 2120 ng·h/mL, a Vd of 1.49 ± 0.152 L/kg, a clearance of 2.15 mL/min/kg and a half-life of 10.9 ± 0.8 h. The same compound returned a level at 48 h in “in vivo” of less than 100 ng/mL. The half-maximal inhibitory concentration (IC50) in the data set on primate C5 protein [4] was in the range of 2 to 20 ng/mL.
